The assay deals with Rat Model of Neuropathic Pain. Nature of the assay: Mechanic pain test (Randall-Sellitio method) in a rat model of neuropathic pain (loose ligation of the right sciatic nerve). Conditions: i.p., 40, 60 mg/kg equivalent of milnacipran, 15 days after surgery, tested for 2 h every 30 min, compared with milnacipran. The assay is classed as in vivo. The method, then: The Effect of Milnacipran and Formula I (1-1) on Nociception in a Rat Model of Neuropathic Pain
After the preoperative pain thresholds of rats determined by mechanic pain test (Randall-Sellitio method), peripheric neuropathy was formed by loose ligating the right sciatic nevre. An identical procedure was performed without ligating on the left side (sham-operation). 15 days after surgical procedure postoperative pain thresholds were determined and saline and drugs were administered via intraperitoneal (i.p) route. Drugs groups were planned as milnacipran (40, 60, 80 mg/kg), Formula I (1-1) (20, 40, 60 mg/kg equivalent of milnacipran), After saline and drug injection, the test was repeated for 2 h in every 30 min. Pain thresholds were given as mean, SEM from % values. Spontaneous locomotor activity was measured by an activity cage and movements were quantified as the total of ambulatory and stereotypic behaviour. Statistical evaluation was made with one way variance analysis (ANOVA) followed by LSD test.

On to `CCN(CC)C(=O)[C@]1(c2ccccc2)CC1CNC(=O)CCCC[C@]1(C)CCSS1` (stereo partly shown) [Formula I (1-1)], for which the “antinociceptive effect (pain thresholds)” value is given as “more potent antinociceptive effect”.

(Values after patent US9233161B2, “Compositions and methods for the treatment of neurological conditions” (CELLIX BIO PRIVATE LIMITED, priority 2012, dated 2016).)
